Laboratory results taken from patent US20130237582A1, “PHARMACEUTICAL COMBINATION OF PACLITAXEL AND A CDK INHIBITOR” (Piramal Enterprises Limited, priority 2010, published 2013).

Columns and labels:
Assay type in all cases: cell-based, human
cyclin D1 [1] = assay: Western blot of cell cycle proteins in MDA-MB-231; settings: 1.5 μM and 5 μM, 24 h
Procedure: (§1) Correlation of PARP activity and cell cycle proteins cyclin D1, total Rb and pRb 780 were studied in two TNBC cell lines viz. MDA-MB-468 and MDA-MB-231. MDA-MB-231 and MDA-MB-468 cells were seeded in RPMI 1460 medium with 10% FCS in […] tissue culture flask and incubated for 24 h. These cells were treated at 1.5 μM and 5 μM Compound A for 24 h. The cells were harvested (trypsinised) and lysed using lysis buffer. Western blotting was carried out (Molecular Cancer […], 2007, 6, 918-925) using specific antibody to PAR, PARP, cyclin D1, CDK4 and pRb Ser 780.

CDK4 = assay: Western blot of cell cycle proteins in MDA-MB-231; settings: 1.5 μM and 5 μM, 24 h
Procedure: as §1

pRb Ser 780 = assay: Western blot of cell cycle proteins in MDA-MB-231; settings: 1.5 μM and 5 μM, 24 h
Procedure: as §1

HUVEC = assay: Endothelial cell tube formation assay
Source text: The Tube Formation Assay represents a simple but powerful model for studying inhibition and induction of angiogenesis. The assay relies on the endothelial cells' ability to form distinct blood-vessel like tubules in an extracellular matrix (BD Matrigel™ Matrix, USA) where they can subsequently be visualized by microscopy. It enables analysis of angiogenic tubules in a 3 dimensional matrix that better resembles the native physiological environment.
Confluent HUVEC (Human umbilical vein endothelial cells) were cultured with above mentioned endothelial medium to desired confluence. For HUVEC 60-80% confluence is recommended.
Endothelial cell suspensions were prepared by trypsinizing the cell monolayers and resuspending the cells in culture medium with 5-10% serum. (0.5−1)×10^6 cells per 180 μL of cell suspension were added (per well of 24 well plate) to the medium (BD Matrigel Matrix) which, had been thawed at 4° C. This suspension was then added to the plates and kept for incubation. The cells were allowed to adhere for 2-3 h and then Compound A (1 μM), Rotenone (1 μM) (Sigma-Aldrich, USA) and Topotecan (3 μM) (Sigma-Aldrich, USA) (20 μL of 10× stocks) were added to the respective wells. DMSO was used as the control. After 24-48 h of incubation the cells were observed under a phase contrast microscope (Zeiss Axio Observer, Germany) for tube formation and angiogenesis.

MDA-MB-468 = assay: Cytotoxicity assay using propidium iodide (PI)
Procedure: (§2) The propidium iodide fluorescence assay (PI) was carried out according to the procedure mentioned in Anticancer Drugs, 1995, 6, 522-32. The assay was developed to characterize the in vitro growth of human tumor cell lines as well as to test the cytotoxic activity of the compounds. Propidium iodide (PI) was used as a dye, which penetrates only damaged cellular membranes. Intercalation complexes are formed by PI with double-stranded DNA, which effect an amplification of the fluorescence. After freezing the cells at −20° C. for 24 h, PI had access to total DNA leading to total cell population counts. Background readings were obtained from cell-free wells containing media and propidium iodide. The human breast cancer cell lines (i.e. […] Control wells were treated with vehicle (DMSO). At the end of the incubation periods, the plates were assayed using PI cytotoxicity assay protocol. Percent cytoxicity was calculated at various drug concentrations and from the graph plotted the IC50 values were determined.

MCF-7 [2] = assay: Cytotoxicity assay using propidium iodide (PI)
Procedure: as §2

MDA-MB-231 = assay: Cytotoxicity assay using propidium iodide (PI)
Procedure: as §2

MCF-7 [3] = assay: Multicellular tumor spheroid (MCTS, 3D) formation; settings: MCF-7 MCTS
Procedure: The assay was carried out according to the method disclosed in Methods in Molecular Medicine, 2007, 140, 141-151.
The multicellular tumor spheroid (MCTS) model is one of the best-described 3D in vitro tumor model systems, which depicts many of the characteristics of tumor tissue and allows reproducible experiments, offering an excellent in vitro screening system. MCTS were propagated using the hanging drop method. Briefly, the cell monolayer was detached using trypsin-EDTA. Cell count was adjusted and 20 μL hanging droplets containing 1,000 cells/drop, were made in bacterial grade petridishes. These hanging drops were incubated for 24 h at 37° C. in a humidified atmosphere of 5% CO2. The MCTS thus generated were cultured in the presence or absence of varying concentrations (0.3 μM to 30 μM) of Compound A for 72 h.

Rb = assay: Western blot of cell cycle proteins in MCF-7; settings: 1.5 μM, 3, 6, 9, 12 and 24 h
Procedure: (§3) MCF-7 cells were seeded in RPMI 1460 medium with 10% FCS in […] tissue culture flask and incubated for 24 h. These cells were treated with Compound A at 1.5 μM. At various time points viz. 3 h, 6 h, 9 h, 12 h and 24 h the cells were harvested (trypsinised) and lysed using lysis buffer. Protein content was estimated by Bradford method (Anal. Biochem., 1976, 72, 248-254). Lysate was applied to Sodium Dodecyl Sulphate-Polyacrylamide Gel Electrophoresis (SDS-PAGE) followed by Western blotting. Western blotting was done using specific antibodies to various cell cycle proteins viz. cyclin D1, CDK4, Rb and pRbSer780.

cyclin D1 [4] = assay: Western blot of cell cycle proteins in MCF-7; settings: 1.5 μM, 3, 6, 9, 12 and 24 h
Procedure: as §3

pRbSer780 = assay: Western blot of cell cycle proteins in MCF-7; settings: 1.5 μM, 3, 6, 9, 12 and 24 h
Procedure: as §3

[5] = Homo sapiens, 48 h treatment, PI assay

SMILES: CN1CC[C@@H](c2c(O)cc(O)c3c(=O)cc(-c4ccccc4Cl)oc23)[C@@H]1CO.Cl [Compound A, (+)-trans-2-(2-Chloro-phenyl)-5,7-dihydroxy-8-(2-hydroxymethyl-1-methyl-pyrrolidin-3-yl)-chromen-4-one hydrochloride]
- cyclin D1 level (cyclin D1 [1]): dose dependent decrease
- CDK4 level (CDK4): dose dependent decrease
- pRb level (pRb Ser 780): dose dependent decrease
- tube formation inhibition compared with standards (HUVEC; 1 μM vs Rotenone 1 μM and Topotecan 3 μM): comparable to Rotenone (standard VEGF inhibitor) and better than Topotecan
- endothelial tube formation (HUVEC; HUVEC in Matrigel, 1 μM, 24-48 h): effectively inhibited endothelial tube formation
- IC50 (MDA-MB-468; [5]): 1000 nM
- IC10 (MDA-MB-468; determined as in Example 3): 0.25 µM
- IC30 (MDA-MB-468; determined as in Example 3): 0.5 µM
- IC50 (MCF-7 [2]; Homo sapiens, MCF7, PI assay): 1000 nM
- IC10 (MCF-7 [2]; determined as in Example 3): 0.37 µM
- IC30 (MCF-7 [2]; determined as in Example 3): 0.75 µM
- IC50 (MDA-MB-231; [5]): 1000 nM
- IC10 (MDA-MB-231; determined as in Example 3): 0.45 µM
- IC30 (MDA-MB-231; determined as in Example 3): 0.75 µM
- concentration from which spheroid formation was arrested (MCF-7 [3]; 0.3 μM to 30 μM, 72 h): ≥ 3 µM
- size of MCTS formed (MCF-7 [3]; 1 μM): smaller as compared to control
- total Rb (Rb): no significant change in total Rb except at 24 h
- Cyclin D1 expression (cyclin D1 [4]): decrease from 6 h onwards and significantly at 12 h
- pRb expression (pRbSer780): decrease from 6 h onwards and significantly at 12 h
